A short description of data set [1]: Permeability (physiochemical properties). Type of data set: in vitro ADME.
Data set [2] is described as follows: Log P (physiochemical properties). Type of data set: physicochemical.
The nature of data set [3]: Mouse PK of G7883, IP in MCT vehicle. Type of data set: in vivo, female NSG mice. The note with it: for AUC(0-t) / Cmax / Tmax / half-life: female, NSG, plasma; for half-life: ip. As to the method:
A total of 0.6% w/v Methylcellulose, 0.2% w/v Tween 80 in water (MCT) was prepared by slowly adding Methylcellulose (Methylocel A15 LV; CAS 9004-67-5, Part ID: 64605-500G-F 27.5-31.5% Methoxyl basis, Sigma-Aldrich, St. Louis, MO, USA) in small portions to prevent clumping while stirring into water at 70–80 °C. Once a homogeneous suspension formed, Tween 80 (Polysorbate 80; CAS#9005-65-6 (Polyoxyethylene (20) Sorbitan Monooleate; Tween 80) Part ID: PO138, Spectrum Chemical, New Brunswick, NJ, USA) was added and stirred until fully dissolved. Vehicle was filtered through 0.22 µm PES (Corning REF no. 431098) prior to adding to the compound for dosing. Respective compound was added based on the target concentration to the MCT vehicle and stirred at 35 °C until the power was well-dispersed. Formulations were homogenized through a polytron homogenizer and then sonicated in a water bath sonicator until a homogeneous suspension was achieved.
G7883 was dosed in three female NSG mice in-house with body weight ranging from 20 to 25 g. Three mice were given an IP dose of G7883 formulated in the MCT vehicle at 50 mpk and 150 mpk with a 5 mL/kg dosing volume. A total of 10 µL of blood was collected serially at 0.25, 0.5, 1, 3, 7, and 24 h post-dose and diluted in 40 µL of the potassium K2EDTA water. The frozen blood samples were stored at −70 °C or lower until analysis.
All plasma and cell media concentrations of G7883 and G6893 were determined using liquid chromatography–tandem mass spectrometry after protein precipitation with acetonitrile and injection of the supernatant onto the column (Waters ACQUITY UPLC BEH C18 1.7 μm, 2.1 × 50 mm for G7883 and G6893). The aqueous mobile phase was 0.1% formic acid, 2 mM ammonium formate in water/acetonitrile (v:v, 95:5), and the organic mobile phase was 0.1% formic acid, 2 mM ammonium formate in acetonitrile/water (v:v, 95:5). An AB Sciex API 4000 Triple Quad instrument was used for detecting G7883 and G6893 (Figure S2). The electrospray ionization source in both columns was operated in the positive ion and multiple reaction monitoring (MRM) detection modes. The MRM transitions for G7883 and G6893 were m/z 462.2 (Q1) and 253.10 (Q3) and m/z 454.2 (Q1) and 325.9 (Q3), respectively. The dynamic range of both assays was 0.50–50.0 ng/mL, and the total run time was 1.6 min. The lower limit of quantitation of the assay was […], and the dilution quality control concentration was set at 10 ng/mL with acceptance criteria for accuracy and precision of 25%.
All plasma and cell media concentrations of G7883 were determined using liquid chromatography–tandem mass spectrometry after protein precipitation with acetonitrile and injection of the supernatant onto the column (Phenomenex Kinetex XB-C18, 30 × 2.1 mm, 2.6 µm). The aqueous mobile phase was 10 mM of ammonium formate in water, and the organic mobile phase was 0.1% formic acid in acetonitrile. An AB Sciex API 5500 Triple Quad instrument was used for detecting G7883. The electrospray ionization source in both columns was operated in the positive ion and MRM detection modes. The MRM transitions for G7883 were m/z 462.2 (Q1) and 253.10 (Q3), respectively. The dynamic range of the assay was 0.50–50.0 ng/mL, and the total run time was 2 min. The lower limit of quantitation of the assay was […], and the dilution quality control concentration was set at 10 ng/mL with acceptance criteria for accuracy and precision of 25%.

Data set [4] can be described thus: Mouse PK of G7883, SC in sunflower oil. The class given is in vivo. As to the method:
was screened in different oil vehicles including corn, coconut, paraffin, soybean, and sunflower oil. […] For subcutaneous administrations, […] was formulated in sunflower oil as a suspension and dosed at 250 mg/kg with a dosing volume of 5 mL/kg. Food and water were available ad libitum to animals. Blood samples were collected post-dose into tubes containing K2EDTA as an anticoagulant. Samples were taken from three different animals at each time point. After the blood was mixed with K2EDTA, the samples were stored at -80 °C until analysis. All plasma and cell media concentrations of […] and […] were determined using liquid chromatography-tandem mass spectrometry after protein precipitation with acetonitrile and injection of the supernatant onto the column (Waters ACQUITY UPLC BEH C18 1.7 μm, 2.1 × 50 mm for […] and […]). The aqueous mobile phase was 0.1% formic acid, 2 mM ammonium formate in water/acetonitrile (v:v, 95:5), and the organic mobile phase was 0.1% formic acid, 2 mM ammonium formate in acetonitrile/water (v:v, 95:5). An AB Sciex API 4000 Triple Quad instrument was used for detecting […] and […] (Figure S2). The electrospray ionization source in both columns was operated in the positive ion and multiple reaction monitoring (MRM) detection modes. The MRM transitions for […] and […] were m/z 462.2 (Q1) and 253.10 (Q3) and m/z 454.2 (Q1) and 325.9 (Q3), respectively. The dynamic range of both assays was 0.50-50.0 ng/mL, and the total run time was 1.6 min. The lower limit of quantitation of the assay was […], and the dilution quality control concentration was set at 10 ng/mL with acceptance criteria for accuracy and precision of 25%. All plasma and cell media concentrations of […] were determined using liquid chromatography-tandem mass spectrometry after protein precipitation with acetonitrile and injection of the supernatant onto the column (Phenomenex Kinetex XB-C18, 30 × 2.1 mm, 2.6 μm). The aqueous mobile phase was 10 mM of ammonium formate in water, and the organic mobile phase was 0.1% formic acid in acetonitrile. An AB Sciex API 5500 Triple Quad instrument was used for detecting […]. The electrospray ionization source in both columns was operated in the positive ion and MRM detection modes. The MRM transitions for […] were m/z 462.2 (Q1) and 253.10 (Q3), respectively. The dynamic range of the assay was 0.50-50.0 ng/mL, and the total run time was 2 min. The lower limit of quantitation of the assay was […], and the dilution quality control concentration was set at 10 ng/mL with acceptance criteria for accuracy and precision of 25%.

The mark [5] stands for this setting: 50 mg/kg, IP 50 mpk, MCT vehicle, mean.
[6] abbreviates: 150 mg/kg, IP 150 mpk, MCT vehicle, mean.
Where [7] appears, read: SC 250 mpk sunflower oil compared with PO 250 mpk.
Setting [8] is: plasma, 250 mg/kg, SC 250 mpk, sunflower oil suspension, mean ± SD.

For `Cc1nccnc1-c1nn2c(=O)cc(-c3ccc(C4CCCCC4)cc3)[nH]c2c1C(=O)N1CC(CF)C1` [G7883, 5-(4-cyclohexylphenyl)-3-[3-(fluoromethyl)azetidine-1-carbonyl]-2-(3-methylpyrazin-2-yl)-4H-pyrazolo[1,5-a]pyrimidin-7-one], the “permeability (in words)” value in data set [1] is recorded as “moderate permeability”. This compound displayed an apparent permeability (Papp) in data set [1] (not told) of 5.79 ×10⁻⁶ cm/s. This compound yielded a logP in data set [2] of 1.83. In data set [3] (IP 150 mpk compared with PO 250 mpk), the “increase of AUC coverage, IP versus PO” value is “approximately 10 fold”. This compound had a t1/2 in data set [3] (IP 150 mpk, MCT vehicle, mean, 150 mg/kg) of 1.53 h. For the same compound, in data set [3] (setting [5]), the AUC(0-t) was found to be 31.2 µM·h, the highest level (Cmax) was 23.9 µM, the Tmax was determined as 1 h and the half-life was 0.895 h. In data set [3] (setting [6]), the AUC(0-t) was 217 µM·h, the peak level (Cmax) was 69.2 µM, the Tmax came to 1 h and the half-life was 1.5 h. Further, the “reduction of Cmax, SC versus IP” value in data set [4] (SC 250 mpk compared with IP 150 mpk) is listed as “approximately 4 fold”. In data set [4] (setting [7]), the “half-life extension, SC versus PO” value is 2.5 fold and the “increase of AUC, SC oil formulation versus oral” value is “more than 5 fold”. For the same compound, in data set [4] (SC 250 mpk, sunflower oil suspension, mean ± SD, 250 mg/kg), the F stood at 46.4 ± 13.2%. Besides, in data set [4] (setting [8]), the AUC(0-t) is 137 ± 51.1 µM·h, the concentration peaked (Cmax) at 16.7 ± 12 µM, the Tmax was 2.67 ± 1.15 h and the half-life was 6.94 ± 2.93 h. In data set [4] (plasma, sc, 250 mg/kg, SC 250 mpk, sunflower oil suspension, mean ± SD), this compound registered a bioavailability of 46%.
